One series concerns SNL rats. The series is described as follows: Rat spinal nerve ligation (SNL) model of neuropathic pain, Von Frey 50% paw withdrawal threshold. In kind it is in vivo, SD Rat. The note with it: for 50% g Threshold, individual animals: 5 mg/kg; for neuropathic pain sensitivity / mechanical hypersensitivity (mechanical allodynia): SNL rats, Von Frey stimulation of hindpaw glabrous skin; for 50% g Threshold, group Mean: n=8. As for the experimental part:
Chung surgery were conducted on anesthetized rats. Rats were habituated in the testing environment for 15 minutes before allodynia measurement (2-3 times). Pre-dose baseline were taken on day 9 post surgery. Rats that don't show allodynic response at this point were excluded. SNL rats with a paw withdrawal threshold >4 g. The animals were grouped according to 50% paw withdrawal threshold (g) and weight. The animals were dosed test articles and vehicle according to the dose protocol. On the testing day (Day 9), rats were dosed with testing articles with 16 min interval between groups. Rats were measured for allodynic response at 0.75, 1.5, 3 h time point post dosing. All values will be expressed as mean±S.E.M. The significance of the differences among groups will be evaluated by two-way ANOVA followed by Dunnett's test using graphpad Prism 6 software. A p value of less than 0.05 is considered statistically significant.

Series [1] can be described thus: Bio-distribution of isoguvacine by LC-MS. In kind it is in vivo, mouse. How it is done:
FIGS. 19A-19N show acute administration of the peripherally-restricted GABAA receptor agonist isoguvacine improves tactile hypersensitivity in five genetic and one environmental model of ASD. […] Two-way ANOVA with post-hoc Sidak's test, *, p<0.05. FIG. 19B: Response to a light air puff stimulus alone in mice following i.p. administration of either saline or 2 mg/kg midazolam treatment. Responses are expressed as percent of startle response to a 125 dB noise. Two-way ANOVA with post-hoc Sidak's test, *, p<0.05. FIG. 19C: Magnitude of startle response to a 125 dB noise in mice following i.p. administration of either saline or 2 mg/kg midazolam treatment. Responses are expressed as percent of startle response to a 125 dB noise. Two-way ANOVA with post-hoc Sidak's test, *, p<0.05. FIG. 19D: Magnitude of startle response to a 125 dB noise in mice following i.p. administration of saline, midazolam (2 mg/kg) or a peripherally-restricted GABAA receptor agonist, isoguvacine (2 mg/kg). Responses are expressed as percent of startle response to a 125 dB noise. Two-way ANOVA with post-hoc Sidak's test, *, p<0.05. FIGS. 19E-19G: Liquid chromatography mass spectrometry (LC-MS) quantified isoguvacine concentrations in cerebrospinal fluid (CSF) (FIG. 19E), blood (FIG. 19F) or liver (FIG. 19G) samples of mice treated with: i.p. saline, i.p. isoguvacine (“Iso.”, 20 mg/kg, samples collected 1, 3 or 24 hours post-injection), intracerebral injection isoguvacine (20 mg/kg, 1 hour post-injection), i.p. diazepam (“DZ”, 20 mg/kg, 1 hour post injection) or intracerebral injection diazepam (20 mg/kg, 1 hour post injection). FIG. 19H: Normalized peak chloride flux through α1β3γ2- and α2β3γ2-containing GABAA receptors in response to isoguvacine application. […] FIGS. 19I-19K: GABAA receptor subunit RNA expression levels across peripheral somatosensory neuron subtypes, for the alpha (FIG. 19I), beta (FIG. 19J), and gamma (FIG. 19K) subunit types. […] Two-way ANOVA with post-hoc Sidak's test, *, p<0.05. FIG. 19M: Response to a light air puff stimulus alone in mice following i.p. administration of either saline or 2 mg/kg isoguvacine treatment. Responses are expressed as percent of startle response to a 125 dB noise. Two-way ANOVA with post-hoc Sidak's test, *, p<0.05. FIG. 19N: Magnitude of startle response to a 125 dB noise in mice following i.p. administration of either saline or 2 mg/kg isoguvacine treatment. Responses are expressed as percent of startle response to a 125 dB noise. […]
FIGS. 28A-28U are related to FIGS. 21A-210. FIG. 28A: Liquid chromatography mass spectrometry (LC-MS) quantified isoguvacine concentrations in brain homogenate samples of mice treated with isoguvacine (2 mg/kg, i.p.) from P1-42. […] Responses are expressed as percent of startle response to a 125 dB startle noise. […]

Setting [2] is: 0 Hour (pre-dose baseline), 5 mpk IP.
[3] abbreviates: printed in the 0.75 Hour column, 5 mpk IP.
The mark [4] stands for this setting: printed in the 1.5 Hour column, 5 mpk IP.
The mark [5] stands for this setting: printed in the 3 Hour column, 5 mpk IP.
The mark [6] stands for this setting: after six-week treatment, 2 mg/kg i.p. daily starting at P0.

Each structure is given as a SMILES string. Several values for one entry are separate records, joined by “and”; a condition that tells them apart may be missing. Equal values may be shown once. Where a name gives a salt, the structure may show the parent alone.

As to `NC1C=C(C(=O)O)CCC1` (stereo not shown) [Compound 5, 3-aminocyclohex-1-enecarboxylic acid hydrochloride], the “Von frey test (MEAN ± S.E.M.)” value with SNL rats (setting [2]) is on record as 2.3 ± 0.34 g; with SNL rats (0.75 Hour, 5 mpk IP), 3.6 ± 0.54 g; in the series with SNL rats (1.5 Hour, 5 mpk IP), 4.1 ± 0.70 g; in the series on SNL rats (3 Hour, 5 mpk IP) it was 4.0 ± 0.79 g. Besides, the “50% g Threshold, individual animals” value in the series with SNL rats (0 Hour (pre-dose baseline, day 9 post surgery), 5 mpk IP, hydrochloride) is 0.99 g and 1.10 g and 1.56 g and 2.64 g and 2.81 g (2×) and 3.31 g (2×); with SNL rats (0.75 Hour post dosing, 5 mpk IP, hydrochloride), 3.33 g and 4.12 g and 2.81 g and 1.85 g and 4.34 g and 3.31 g and 2.37 g and 6.74 g; in the series with SNL rats (1.5 Hour post dosing, 5 mpk IP, hydrochloride), 6.74 g (2×) and 5.10 g and 1.85 g and 3.71 g (2×) and 3.31 g and 1.56 g; in the series on SNL rats (3 Hour post dosing, 5 mpk IP, hydrochloride), 6.42 g and 3.33 g and 2.81 g and 2.61 g and 3.71 g and 4.34 g and 0.82 g and 7.91 g. For the same molecule, the “neuropathic pain sensitivity / mechanical hypersensitivity (mechanical allodynia)” value in the series with SNL rats (hydrochloride) was “reduce tactile over-reactivity (mechanical allodynia)”; with SNL rats (listed as compound 5, hydrochloride) it was “reduce neuropathic pain sensitivity”. Moreover, the figures for the “50% g Threshold, group Mean” value in the series with SNL rats (setting [3]), with SNL rats (setting [4]) and with SNL rats (setting [5]) were 2.31 g, 3.61 g and 4.09 g, respectively.

In the case of `O=C(O)C1=CCNCC1` [Isoguvacine, isoguvacine], the “Von frey test (MEAN ± S.E.M.)” value with SNL rats (setting [2]) is reported as 2.3 ± 0.33 g; in the series with SNL rats (0.75 Hour, 5 mpk IP), 1.8 ± 0.23 g; in the series on SNL rats (1.5 Hour, 5 mpk IP), 2.0 ± 0.23 g; with SNL rats (3 Hour, 5 mpk IP), 4.9 ± 0.64 g. In addition, the “50% g Threshold, individual animals” value in the series on SNL rats (0 Hour (pre-dose baseline, day 9 post surgery), 5 mpk IP) was 0.99 g and 1.10 g and 1.85 g and 2.23 g and 2.81 g and 3.00 g and 3.31 g (2×); in the series on SNL rats (0.75 Hour post dosing, 5 mpk IP) it was 1.31 g (2×) and 2.37 g (2×) and 2.81 g and 1.56 g (2×) and 0.99 g; in the series on SNL rats (1.5 Hour post dosing, 5 mpk IP), 1.85 g (3×) and 2.37 g and 0.82 g and 2.81 g and 1.56 g and 2.64 g; in the series on SNL rats (3 Hour post dosing, 5 mpk IP), 2.81 g and 6.74 g and 7.91 g and 3.33 g and 5.15 g and 4.34 g and 5.77 g and 3.31 g. Also, the analgesia effect entry in the series on SNL rats (3 hour time point, 5 mpk IP) was “significant analgesia effect”. In addition, the “neuropathic pain sensitivity / mechanical hypersensitivity (mechanical allodynia)” value with SNL rats was “reduce neuropathic pain sensitivity”; in the series on SNL rats (listed as isoguvacine) it was “reduce tactile over-reactivity (mechanical allodynia)”. The “50% g Threshold, group Mean” value in the series on SNL rats (setting [3]) came out at 2.32 g; in the series on SNL rats (setting [4]), 1.78 g; in the series with SNL rats (setting [5]) it was 1.97 g. In series [1] (20 mg/kg i.p.), the “drug in blood and liver” value was “detected in the blood and liver”. For the same molecule, the “drug in brain or cerebrospinal fluid” value in series [1] (20 mg/kg i.p.) is recorded as “undetectable in the brain or cerebrospinal fluid”. In addition, in series [1] (setting [6]), the “drug in brain or spinal cord” value is given as “not the brain or spinal cord”. For the same molecule, the drug in liver entry in series [1] (setting [6]) is given as “detected in liver”.

These data come from patent publication US12252457B2, “Compositions and methods for reducing tactile dysfunction, anxiety, and social impairment” (President and Fellows of Harvard College, priority 2018, dated 2025).
